Assay results as given in patent US20250129028A1, “COMPOUNDS AND METHODS FOR YAP/TEAD MODULATION AND INDICATIONS THEREFOR” (Opna Bio SA, priority 2022, published 2025).

Test system: TEAD-dependent transcription
Assay: TEAD-dependent transcription cell-based reporter assay (MSTO-211H+12XGTIIC luciferase)
Design: species or system human
Details: Homo sapiens; MSTO-211H+12XGTIIC cell line, luciferase signal normalized to cell viability, 24 hours compound incubation; read-out: MSTO-211H GMean IC50 (uM) Cell Assay Reporter Cell Variant: TEAD
Description: Determine Inhibitor Activity Against TEAD-Dependent Transcription in a Cell-Based Reporter Assay
The human mesothelioma cell line MSTO-211H was stably transfected with a pGL4.21 plasmid containing a synthetic promoter with 12 copies of the GTIIC TEAD response element that drives the expression of a luciferase reporter gene^1 using Lipofectamine transfection reagent (Thermo Fisher). Transfected cells were selected using puromycin and single cell clones expressing this construct (referred to as MSTO-211H+12XGTIIC) were generated by limiting dilution. MSTO-211H cells was characterized by genetic alterations in key components of the Hippo pathway^2, resulting in up-regulation of YAP/TEAD-mediated transcription. […] To evaluate TEAD inhibitors, the MSTO-211H+12XGTIIC cell line was seeded in a 96-well plate in 50 μL of culture media at 1×10^4 cells per well and incubated at 37° C. overnight. Serial dilutions of compounds (in total volume of 50 μL of culture media) were added to the cells and incubated at 37° C. for 24 hours. Each plate included cells treated with DMSO as high controls and cells treated with 20 μM of the reference compound K-975 (a known TEAD inhibitor)^3 as low controls. Cell viability was assayed by the addition of 25 μL of CellTiter-Fluor reagent (Promega) followed by a 30-minute incubation at 37° C. and quantification of the fluorescence signal (Ex400/Em505). Subsequently, luciferase expression was assayed by the addition of 25 μL of ONE-Glo reagent (Promega) followed by a 10-minute incubation at room temperature and quantification of the luminescence signal. The luminescence signal was normalized to the fluorescence signal to correct for any loss in cell viability over the 24-hour compound incubation period. The percentage of inhibition of normalized luminescence signal, indicative of compound-mediated inhibition of TEAD-dependent transcription, at individual compound concentrations relative to high and low controls was calculated. The data were analyzed by using nonlinear regression to generate IC50 values for individual compounds.

| SMILES | IC50 [µM] |
| --- | --- |
| CCNS(=O)(=O)N1CCc2ccc(Oc3ccc(C(F)(F)F)cc3)cc2C1 [P-0017, N-Ethyl-7-(4-(trifluoromethyl)phenoxy)-3,4-dihydroisoquinoline-2(1H)-sulfonamide] | 0.001 to 10 |
| CS(=O)(=O)CCC(=O)N1CCc2ccc(Oc3ccc(C(F)(F)F)cc3)cc2C1 [P-0018, 3-(methylsulfonyl)-1-(7-(4-(trifluoromethyl)phenoxy)-3,4-dihydroisoquinolin-2(1H)-yl)propan-1-one] | 0.001 to 10 |
| CC(C)NC(=O)N1CCc2ccc(Oc3ccc(C(F)(F)F)cc3)cc2C1 [P-0019, N-isopropyl-7-(4-(trifluoromethyl)phen-oxy)-3,4-dihydroiso-quinoline-2(1H)-carbox-amide] | 0.001 to 10 |
| CC(C)NS(=O)(=O)N1CCc2ccc(Oc3ccc(C(F)(F)F)cc3)cc2C1 [P-0020, N-isopropyl-7-(4-(trifluoromethyl)phen-oxy)-3,4-dihydroiso-quinoline-2(1H)-sulfon-amide] | 0.001 to 10 |
| CC(C)S(=O)(=O)N1CCc2ccc(Oc3ccc(C(F)(F)F)cc3)cc2C1 [P-0021, 2-(isopropylsulfonyl)-7-(4-(trifluoromethyl)-phenoxy)-1,2,3,4-tetra-hydroisoquinoline] | 0.001 to 10 |
| O=C(Nc1ccccc1)N1CCc2ccc(Oc3ccc(C(F)(F)F)cc3)cc2C1 [P-0022, N-phenyl-7-(4-(trifluoro-methyl)phenoxy)-3,4-dihydroisoquinoline-2(1H)-carboxamide] | 0.001 to 10 |
| CCCCC(=O)N1CCc2ccc(Oc3ccc(C(F)(F)F)cc3)cc2C1 [P-0023, 1-(7-(4-(trifluorometh-yl)phenoxy)-3,4-dihydro-isoquinolin-2(1H)-yl)-pentan-1-one] | 0.001 to 10 |
| CN(C)S(=O)(=O)N1CCc2ccc(Oc3ccc(C(F)(F)F)cc3)cc2C1 [P-0024, N,N-dimethyl-7-(4-(trifluoromethyl)phen-oxy)-3,4-dihydroiso-quinoline-2(1H)-sulfon-amide] | 0.001 to 10 |
| COC(=O)N1CCc2ccc(Oc3ccc(C(F)(F)F)cc3)cc2C1 [P-0025, methyl 7-(4-(trifluoro-methyl)phenoxy)-3,4-dihydroisoquinoline-2(1H)-carboxylate] | 0.001 to 10 |
| NC(=O)CN1CCc2ccc(Oc3ccc(C(F)(F)F)cc3)cc2C1 [P-0026, 2-(7-(4-(trifluorometh-yl)phenoxy)-3,4-dihydro-isoquinolin-2(1H)-yl)-acetamide] | 0.001 to 10 |
| CN(C)C(=O)CN1CCc2ccc(Oc3ccc(C(F)(F)F)cc3)cc2C1 [P-0027, N,N-dimethyl-2-(7-(4-(trifluoromethyl)phen-oxy)-3,4-dihydroisoquin-olin-2(1H)-yl)acetamide] | 0.001 to 10 |
| CCC(=O)CN1CCc2ccc(Oc3ccc(C(F)(F)F)cc3)cc2C1 [P-0028, 1-(7-(4-(trifluorometh-yl)phenoxy)-3,4-dihydro-isoquinolin-2(1H)-yl)-butan-2-one] | 10 to 100 |
| NC(=O)CCN1CCc2ccc(Oc3ccc(C(F)(F)F)cc3)cc2C1 [P-0029, 3-(7-(4-(trifluorometh-yl)phenoxy)-3,4-dihydro-isoquinolin-2(1H)-yl)-propanamide] | 10 to 100 |
| O=S(=O)(N1CCCC1)N1CCc2ccc(Oc3ccc(C(F)(F)F)cc3)cc2C1 [P-0030, 2-(pyrrolidin-1-ylsulfon-yl)-7-(4-(trifluorometh-yl)phenoxy)-1,2,3,4-tetrahydroisoquinoline] | 0.001 to 10 |
| CSCCC(=O)N1CCc2ccc(Oc3ccc(C(F)(F)F)cc3)cc2C1 [P-0031, 3-(methylthio)-1-(7-(4-(trifluoromethyl)phen-oxy)-3,4-dihydroisoquin-olin-2(1H)-yl)propan-1-one] | 0.001 to 10 |
| CCCCNC(=O)N1CCc2ccc(Oc3ccc(C(F)(F)F)cc3)cc2C1 [P-0032, N-butyl-7-(4-(trifluoro-methyl)phenoxy)-3,4-dihydroisoquinoline-2(1H)-carboxamide] | 0.001 to 10 |
| O=C(C1CCC1)N1CCc2ccc(Oc3ccc(C(F)(F)F)cc3)cc2C1 [P-0033, cyclobutyl(7-(4-(trifluoro-methyl)phenoxy)-3,4-dihydroisoquinolin-2(1H)-yl)methanone] | 0.001 to 10 |
| CCCCS(=O)(=O)N1CCc2ccc(Oc3ccc(C(F)(F)F)cc3)cc2C1 [P-0034, 2-(butylsulfonyl)-7-(4-(trifluoromethyl)phen-oxy)-1,2,3,4-tetrahydro-isoquinoline] | 0.001 to 10 |

| SMILES | IC50 [µM] |
| --- | --- |
| CCN(CC)C(=O)N1CCc2ccc(Oc3ccc(C(F)(F)F)cc3)cc2C1 [P-0035, N,N-diethyl-7-(4-(trifluoromethyl)phen-oxy)-3,4-dihydroisoquin-oline-2(1H)-carboxamide] | 0.001 to 10 |
| C=C(C)OC(=O)N1CCc2ccc(Oc3ccc(C(F)(F)F)cc3)cc2C1 [P-0036, prop-1-en-2-yl 7-(4-(trifluoromethyl)phen-oxy)-3,4-dihydroiso-quinoline-2(1H)-carbox-ylate] | 0.001 to 10 |
| O=C(NC1CCCC1)N1CCc2ccc(Oc3ccc(C(F)(F)F)cc3)cc2C1 [P-0037, N-cyclopentyl-7-(4-(trifluoromethyl)phen-oxy)-3,4-dihydroiso-quinoline-2(1H)-carbox-amide] | 0.001 to 10 |
| O=C(NC1CCOC1)N1CCc2ccc(Oc3ccc(C(F)(F)F)cc3)cc2C1 (centres unmarked) [P-0038, N-(tetrahydrofuran-3-yl)-7-(4-(trifluorometh-yl)phenoxy)-3,4-dihydro-isoquinoline-2(1H)-carboxamide] | 0.001 to 10 |
| NC(=O)CCC(=O)N1CCc2ccc(Oc3ccc(C(F)(F)F)cc3)cc2C1 [P-0039, 4-oxo-4-(7-(4-(trifluoro-methyl)phenoxy)-3,4-dihydroisoquinolin-2(1H)-yl)butanamide] | 0.001 to 10 |
| N#CCCC(=O)N1CCc2ccc(Oc3ccc(C(F)(F)F)cc3)cc2C1 [P-0040, 4-oxo-4-(7-(4-(trifluoro-methyl)phenoxy)-3,4-dihydroisoquinolin-2(1H)-yl)butanenitrile] | 0.001 to 10 |
| CP(C)(=O)CCC(=O)N1CCc2ccc(Oc3ccc(C(F)(F)F)cc3)cc2C1 [P-0041, 3-(dimethylphosphoryl)-1-(7-(4-(trifluorometh-yl)phenoxy)-3,4-dihydro-isoquinolin-2(1H)-yl)-propan-1-one] | 0.001 to 10 |
| N#CC1CC(C(=O)N2CCc3ccc(Oc4ccc(C(F)(F)F)cc4)cc3C2)C1 (centres unmarked) [P-0042, 3-(7-(4-(trifluorometh-yl)phenoxy)-1,2,3,4-tetrahydroisoquinoline-2-carbonyl)cyclobutane-1-carbonitrile] | 0.001 to 10 |
| O=C1CC(CC(=O)N2CCc3ccc(Oc4ccc(C(F)(F)F)cc4)cc3C2)C(=O)N1 (centres unmarked) [P-0043, 3-(2-oxo-2-(7-(4-(trifluoromethyl)phen-oxy)-3,4-dihydroiso-quinolin-2(1H)-yl)ethyl)-pyrrolidine-2,5-dione] | 0.001 to 10 |
| O=C(CN1C(=O)CCC1=O)N1CCc2ccc(Oc3ccc(C(F)(F)F)cc3)cc2C1 [P-0044, 1-(2-oxo-2-(7-(4-(trifluoromethyl)phen-oxy)-3,4-dihydroiso-quinolin-2(1H)-yl)-ethyl)pyrrolidine-2,5-dione] | 0.001 to 10 |
| O=C(C1CCS(=O)(=O)C1)N1CCc2ccc(Oc3ccc(C(F)(F)F)cc3)cc2C1 (centres unmarked) [P-0045, (1,1-dioxidotetrahydro-thiophen-3-yl)(7-(4-(trifluoromethyl)phen-oxy)-3,4-dihydroisoquin-olin-2(1H)-yl)methanone] | 0.001 to 10 |
| Cc1nnc(CCC(=O)N2CCc3ccc(Oc4ccc(C(F)(F)F)cc4)cc3C2)s1 [P-0046, 3-(5-methyl-1,3,4-thiadi-azol-2-yl)-1-(7-(4-(trifluoromethyl)phen-oxy)-3,4-dihydroisoquin-olin-2(1H)-yl)propan-1-one] | 0.001 to 10 |
| O=C(Cc1cnccc1O)N1CCc2ccc(Oc3ccc(C(F)(F)F)cc3)cc2C1 [P-0047, 2-(4-hydroxypyridin-3-yl)-1-(7-(4-(trifluoro-methyl)phenoxy)-3,4-dihydroisoquinolin-2(1H)-yl)ethan-1-one] | 0.001 to 10 |
| NS(=O)(=O)CCC(=O)N1CCc2ccc(Oc3ccc(C(F)(F)F)cc3)cc2C1 [P-0048, 3-oxo-3-(7-(4-(trifluoro-methyl)phenoxy)-3,4-dihydroisoquinolin-2(1H)-yl)propane-1-sulfonamide] | 0.001 to 10 |
| N#CCCS(=O)(=O)N1CCc2ccc(Oc3ccc(C(F)(F)F)cc3)cc2C1 [P-0049, 3-((7-(4-(trifluorometh-yl)phenoxy)-3,4-dihydro-isoquinolin-2(1H)-yl)sul-fonyl)propanenitrile] | 0.001 to 10 |
| COC(=O)CCS(=O)(=O)N1CCc2ccc(Oc3ccc(C(F)(F)F)cc3)cc2C1 [P-0050, methyl 3-((7-(4-(trifluoro-methyl)phenoxy)-3,4-dihydroisoquinolin-2(1H)-yl)sulfonyl)pro-panoate] | 0.001 to 10 |
| NC(=O)CCS(=O)(=O)N1CCc2ccc(Oc3ccc(C(F)(F)F)cc3)cc2C1 [P-0051, 3-((7-(4-(trifluorometh-yl)phenoxy)-3,4-dihydro-isoquinolin-2(1H)-yl)sul-fonyl)propanamide] | 0.001 to 10 |
